{
  "source": "patent US9682013B2",
  "about": "“Pharmaceutical compositions comprising human antibodies to PCSK9” (SANOFI BIOTECHNOLOGY, priority 2011, dated 2017)",
  "key": {"[1]": {"system": "patients with an elevated LDL-C (≧100 mg/dL or 2.59 mmol/L) treated with a stable dose of atorvastatin 10 mg", "assay": "Study 2: randomized, double-blind, placebo-controlled 8-week study of 316P 150 mg E2W with atorvastatin 10 mg or 80 mg", "type": "in vivo, human", "experimental": "This was a randomized, double-blind, 3-parallel-groups, placebo-controlled, fixed dose/dose regimen, multicenter, 8-week study in subjects with primary hypercholesterolemia, aged 18-75 years. One aim of this study was to assess the efficacy and safety of 316P in patients with an elevated LDL-C (≧100 mg/dL or 2.59 mmol/L) treated with a stable dose of atorvastatin 10 mg.\nDuring the screening period, patients had to be stabilized to atorvastatin 10 mg for at least 6 weeks, if they are not already. Then, after 1 additional screening week, patients were centrally randomized via IVRS/IWRS in a 1:1:1 ratio to one of the 3 treatment groups (placebo for 316P+atorvastatin 80 mg, 316P 150 mg E2W+atorvastatin 80 mg, 316P 150 mg E2W+atorvastatin 10 mg) and treated in a double-blind manner for approximately 8 weeks. 316P was administered every 2 weeks on site trough subcutaneous injection and atorvastatin was administered orally once daily in the evening at home. The double-blind treatment period was then followed by an 8-week follow-up period.\nInclusion criteria: • Patients (patients receiving a lipid lowering treatment other than atorvastatin/or not at stable dose of atorvastatin 10 mg for at least 6 weeks prior to screening period, or drug naive patients) with primary hypercholesterolemia likely to have low-density lipoprotein cholesterol (LDL-C)≧100 mg/dL (≧2.59 mmol/L) at the end of the run-in period on atorvastatin therapy (Week-1). • OR • Patients with primary hypercholesterolemia treated with stable dose of atorvastatin 10 mg for at least 6 weeks prior to screening period and likely to have low-density lipoprotein cholesterol (LDL-C)≧100 mg/dL (≧2.59 mmol/L) at the screening visit (Week-1).\nDuration of Study Period Per Subject:\n• Arm 1: The first group of patients receives one subcutaneous injection of 1 mL of antibody 316P, administered in the abdomen every two weeks, with a dose regimen at 150 mg, for a double-blind treatment period of 8 weeks; • Atorvastatin is administered once per day at a stable dose of 10 mg as background therapy. • Atorvastatin is administered at a dose of 80 mg once during the double-blind treatment period of 8 weeks. • Arm 2: The second group of patients receives one subcutaneous injection of 1 mL of a placebo solution, administered in the abdomen every two weeks, with a dose regimen at 150 mg, for a double-blind treatment period of 8 weeks; • Atorvastatin is administered once per day at a stable dose of 10 mg as background therapy. • Atorvastatin is administered at a dose of 80 mg (2 over-encapsulated atorvastatin 40 mg tablets) once during the double-blind treatment period of 8 weeks. • Arm 3: The third group of patients receives one subcutaneous injection of 1 mL of antibody 316P, administered in the abdomen every two weeks, with a dose regimen at 150 mg, for a double-blind treatment period of 8 weeks; • Atorvastatin is administered once per day at a stable dose of 10 mg as background therapy. • Atorvastatin is administered at a dose of 10 mg (1 over-encapsulated atorvastatin 10 mg tablet+1 matching placebo tablet) once during the double-blind treatment period of 8 weeks. Primary and Key Secondary Endpoints Primary Endpoints\nThe primary efficacy variable is the percent change in calculated LDL-C from baseline to Week 8, which is defined as: 100×(calculated LDL-C value at Week 8-calculated LDL-C value at baseline)/calculated LDL-C value at baseline.\nIn case of unavailable calculated LDL-C value at Week 8 as defined above, then the last calculated LDL-C value measured during the efficacy period and before the Week 8 time window was used to impute the missing Week 8 calculated LDL-C value (Last Observation Carried Forward [LOCF] procedure). […]"}, "[2]": {"system": "patients with heterozygous familial hypercholesterolemia (heFH)", "assay": "Study 6: randomized, placebo-controlled 12-week trial in heFH on statin with or without ezetimibe (interim analysis)", "type": "in vivo, human", "conditions": "every two or four weeks", "experimental": "A randomized, double-blind, multi-dose, placebo controlled, 75-patient trial in patients with heterozygous familial hypercholesterolemia (heFH). In this trial, patients must meet the World Health Organization criteria for heFH, be on a stable daly statin regimen for at least 6-weeks before entering the trial, and have serum LDL-C levels ≧100 mg/dL. Patients were permitted to be taking ezetimibe in addition to a daily statin. The primary endpoint of the study is the change in LDL cholesterol from baseline compared to placebo over the 12-week study period.\nPatients treated with different doses of 316P achieved mean LDL-C reductions of approximately 30% to greater than 60% from baseline at 12-weeks compared to a 10% reduction with placebo (p<0.01), which was the primary endpoint of the study. The interim analysis was conducted when all patients completed the primary endpoint at 12-weeks."}, "[3]": {"conditions": "316P 150 mg with atorvastatin, 8 weeks, consistent with LDL-C decrease"}, "[4]": {"conditions": "316P 150 mg+atorvastatin 80 mg vs placebo+atorvastatin 80 mg, p<0.0001"}},
  "data": [
    {"substance": "316P: fully human anti-PCSK9 antibody comprising a HCVR as shown in SEQ ID NO: 90 and LCVR as shown in SEQ ID NO: 92 [Antibody 316P]", "values": [
      {"measurement": "safety signal", "setting": "[1]; 150 mg E2W, 8 weeks", "result": "No particular safety signal was noted"},
      {"measurement": "tolerability", "setting": "[1]; 150 mg E2W, 8 weeks of treatment, all treatment groups", "result": "well tolerated"},
      {"measurement": "HDL-C", "setting": "[1]; 316P 150 mg co-administered with atorvastatin 10 mg or 80 mg", "result": "trend of increase"},
      {"measurement": "HDL-C percent change from baseline, LS mean", "setting": "[1]; 316P 150 mg co-administered with atorvastatin 10 mg, 8 weeks", "result": "+2.6%"},
      {"measurement": "HDL-C percent change from baseline, LS mean", "setting": "[1]; 316P 150 mg co-administered with atorvastatin 80 mg, 8 weeks", "result": "+5.8%"},
      {"measurement": "Apo-B/ApoA-1 ratio", "setting": "[1]; [3]", "result": "Consistent results"},
      {"measurement": "ApoB", "setting": "[1]; [3]", "result": "Consistent results"},
      {"measurement": "Total-C", "setting": "[1]; [3]", "result": "Consistent results"},
      {"measurement": "non HDL-C", "setting": "[1]; [3]", "result": "Consistent results"},
      {"measurement": "median reduction from baseline in LDL-C at 8 weeks", "setting": "[1]; 316P 150 mg+atorvastatin 10 mg group", "result": "−70.4", "unit": "%"},
      {"measurement": "median reduction from baseline in LDL-C at 8 weeks", "setting": "[1]; 316P 150 mg+atorvastatin 80 mg group", "result": "−70.6", "unit": "%"},
      {"measurement": "LS mean difference in percent change from baseline in LDL-C at 8 weeks", "setting": "[1]; [4]", "result": "−55.8", "unit": "%"},
      {"measurement": "effect size estimate, rank-based analysis of covariance, percent change in LDL-C at 8 weeks", "setting": "[1]; [4]", "result": "−54.5", "unit": "%"},
      {"measurement": "troponin levels", "setting": "[1]; all treatment groups", "result": "no change"},
      {"measurement": "mean LDL-C reductions at 12-weeks compared to placebo", "setting": "[2]", "result": "significantly greater mean LDL-C reductions"}
    ]}
  ]
}
